pIC50: −log10 of the molar value.

From patent publication US8629132B2, “Kinase inhibitors” (Genosco, priority 2009, dated 2014) come the findings set out here.

One assay addresses T1, SYK (Homo sapiens, UniProt P43405).
T1 construct: Purified full-length human SYK, ZAP70, PIM1, PYK2; purchased Carna Biosciences
The experiment in a line: Kinase inhibition assay: SYK. As to conditions: at 1 μM concentration. It is filed as biochemical.

Another assay deals with T2, PYK2 (Homo sapiens, UniProt Q14289).
T2 construct: Purified full-length human SYK, ZAP70, PIM1, PYK2; purchased Carna Biosciences
The experiment in a line: Kinase inhibition assay: PYK2. It is filed as biochemical. The note with it: at 1 μM concentration. The protocol:
(§1) Compounds of the present invention were tested for their capacity to inhibit a kinase panel which includes, but are not limited to, spleen tyrosine kinase (SYK), zeta-chain-associated protein kinase 70 (ZAP70), PTK2B protein tyrosine kinase 2 (PYK2), focal adhesion kinase (FAK), provirus integration of maloney kinase 1 (PIM1), rearranged during transfection kinase (RET), Fms-like tyrosine kinase 3 (FLT3), Janus kinase 2 (JAK2), and leucine-rich repeat kinase 2 (LRRK2).
(§2) Inhibition of SYK, ZAP70, PYK2, FAK, PIM1, RET, FLT3, JAK2 and LRRK2 Kinase Activity
(§3) Compounds of the invention were initially diluted to 10 mM in 100% DMSO (CALBIOCHEM™) for storage and made into kinase buffer solution to create a compound concentration ranging from 1 uM and 10 uM. Serial dilutions of compounds of the invention were dispensed into a 96-well plate (GREINER BIOSCIENCES™) at 6 μL each. Purified full-length human SYK, ZAP70, PIM1, PYK2 and truncated human FAK, RET, FLT3, JAK2, and LRRK2 (CARNA BIOSCIENCES™) were diluted in kinase buffer and added to the compound solutions and pre-incubated for 30 minutes at room temperature (1 hour for PYK2). […] The reaction mixture was incubated for 1 hour (2 hours for PYK2). Following the incubation, the stop solution made with EDTA, water, and Lance detection buffer ([…]™) was added (12μL each) to stop phosphorylation. […] The IC50 value of test compound was calculated at Gradpad Prism 5 unless specified otherwise.

In another assay the target is T3, FAK (Homo sapiens, UniProt Q05397).
T3 construct: truncated human FAK, RET, FLT3, JAK2, and LRRK2; purchased Carna Biosciences
Nature of the assay: Kinase inhibition assay: FAK. It is filed as biochemical. As to conditions: at 1 μM concentration. As to the method:
as §1, §2, §3

A further assay concerns the target T4, PIM1 (Homo sapiens, UniProt P11309).
T4 construct: Purified full-length human SYK, ZAP70, PIM1, PYK2; purchased Carna Biosciences
The experiment in a line: Kinase inhibition assay: PIM1. As to conditions: at 1 μM concentration. The assay is classed as biochemical. As to the method:
as §1, §2
Compounds of the invention were initially diluted to 10 mM in 100% DMSO (CALBIOCHEM™) for storage and made into kinase buffer solution to create a compound concentration ranging from 1 uM and 10 uM. Serial dilutions of compounds of the invention were dispensed into a 96-well plate (GREINER BIOSCIENCES™) at 6 μL each. Purified full-length human SYK, ZAP70, PIM1, PYK2 and truncated human FAK, RET, FLT3, JAK2, and LRRK2 (CARNA BIOSCIENCES™) were diluted in kinase buffer and added to the compound solutions and pre-incubated for 30 minutes at room temperature (1 hour for PYK2). […] The reaction mixture was incubated for 1 hour (2 hours for PYK2). Following the incubation, the stop solution made with EDTA, water, and Lance detection buffer ([…]™) was added (12μL each) to stop phosphorylation. […] Substrate phosphorylation was a function of the 665 nm emission measured following the addition of the detection solution and 50 minutes of incubation. The IC50 value of test compound was calculated at Gradpad Prism 5 unless specified otherwise.

Another assay has as its target T5, RET (Homo sapiens, UniProt P07949).
T5 construct: truncated human FAK, RET, FLT3, JAK2, and LRRK2; purchased Carna Biosciences
T5 sequence (P07949 658-1114 limits assumed): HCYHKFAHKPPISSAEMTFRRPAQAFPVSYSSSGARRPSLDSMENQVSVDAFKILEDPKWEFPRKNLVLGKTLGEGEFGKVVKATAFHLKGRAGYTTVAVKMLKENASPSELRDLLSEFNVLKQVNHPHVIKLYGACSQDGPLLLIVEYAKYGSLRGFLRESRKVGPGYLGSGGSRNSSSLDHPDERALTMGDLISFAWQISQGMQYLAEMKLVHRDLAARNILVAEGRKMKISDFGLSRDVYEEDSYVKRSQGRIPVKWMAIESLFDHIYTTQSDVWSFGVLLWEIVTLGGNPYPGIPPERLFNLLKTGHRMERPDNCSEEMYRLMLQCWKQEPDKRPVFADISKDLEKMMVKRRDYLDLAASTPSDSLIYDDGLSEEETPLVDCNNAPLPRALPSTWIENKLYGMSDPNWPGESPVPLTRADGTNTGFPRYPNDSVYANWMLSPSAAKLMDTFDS
The experiment in a line: Kinase inhibition assay: RET. The assay is classed as biochemical.

For another assay, the target named is T6, LRRK2 (Homo sapiens, UniProt Q5S007).
T6 construct: truncated human FAK, RET, FLT3, JAK2, and LRRK2; purchased Carna Biosciences
Nature of the assay: Kinase inhibition assay: LRRK2. It is filed as biochemical. The note with it: at 1 μM concentration. As to the method: as §1, §2, §3

The target of another assay is K1T (Homo sapiens, UniProt P10721). The experiment in a line: Kinase inhibition assay: KIT. The assay is classed as biochemical.
The next assay has as its target JAK2 (Homo sapiens, UniProt O60674). Nature of the assay: Kinase inhibition assay: JAK2. It is filed as biochemical. Further details: truncated human FAK, RET, FLT3, JAK2, and LRRK2; purchased Carna Biosciences.
The subject of assay [1] is TNF-α release in THP-1 cells. The experiment in a line: SYK dependent TNF-α release assay (IgG stimulation). The assay is classed as cell-based, human. The protocol:
Compounds of the present invention are tested for their effects on TNF-α release in human acute monocytic leukimia cell line (THP-1) to illustrate potential efficacy at the cellular level. TNF-α is a cytokine involved in systemic inflammation and is a member of a group of cytokines that stimulate the acute phase reaction. The primary role of TNF-α is in the regulation of immune cells. TNF-α is known to induce apoptotic cell death and inflammation and to inhibit early tumorigenesis and viral replication. Dysregulation and, in particular, overproduction of TNF-α have been implicated in a variety of human diseases, autoimmune disease, inflammation, arthritis and cancer.
Production or release of TNF-α is controlled by type of stimulus to which the cell responds. SYK activity is involved in mediating TNF-α production. When stimulated by IgG, cells increase TNF-α production in a SYK dependent manner (i.e., the SYK dependent pathway). However, when stimulated by lipopolysaccharide (LPS), they produce TNF-α in a SYK independent manner.
Compounds of the invention were tested for their TNF-α release effect on THP-1 cells. For SYK dependent TNF-α release assay (i.e., via IgG stimulation), THP-1 cells derived from human monocytic cells were obtained from the American Type Culture Collection (ATCC, Manassas, Va.). This cell line was maintained with an Roswell Park Memorial Institute (RPMI) medium (GIBCO™) containing 10 fetal bovine serum (FBS; GIBCO™) and 0.05 mM 2-mercaptoethanol. The THP-1 cells were seeded at 1×10^5 cells/100 μL/well into human IgG (10 μg/well, INVITROGENT™)-coated 96 well culture plate, and serially diluted compound was then added. After an 18-hour incubation period at 37° C., supernatants were collected for the determination of the TNF-α level by enzyme-linked immunosorbent assay (ELISA), and the remaining cells were subjected to an MTT (yellow tetrazolium salt) assay to determine the cytotoxic effects of compound.

T2 sequence (Q14289 whole entry): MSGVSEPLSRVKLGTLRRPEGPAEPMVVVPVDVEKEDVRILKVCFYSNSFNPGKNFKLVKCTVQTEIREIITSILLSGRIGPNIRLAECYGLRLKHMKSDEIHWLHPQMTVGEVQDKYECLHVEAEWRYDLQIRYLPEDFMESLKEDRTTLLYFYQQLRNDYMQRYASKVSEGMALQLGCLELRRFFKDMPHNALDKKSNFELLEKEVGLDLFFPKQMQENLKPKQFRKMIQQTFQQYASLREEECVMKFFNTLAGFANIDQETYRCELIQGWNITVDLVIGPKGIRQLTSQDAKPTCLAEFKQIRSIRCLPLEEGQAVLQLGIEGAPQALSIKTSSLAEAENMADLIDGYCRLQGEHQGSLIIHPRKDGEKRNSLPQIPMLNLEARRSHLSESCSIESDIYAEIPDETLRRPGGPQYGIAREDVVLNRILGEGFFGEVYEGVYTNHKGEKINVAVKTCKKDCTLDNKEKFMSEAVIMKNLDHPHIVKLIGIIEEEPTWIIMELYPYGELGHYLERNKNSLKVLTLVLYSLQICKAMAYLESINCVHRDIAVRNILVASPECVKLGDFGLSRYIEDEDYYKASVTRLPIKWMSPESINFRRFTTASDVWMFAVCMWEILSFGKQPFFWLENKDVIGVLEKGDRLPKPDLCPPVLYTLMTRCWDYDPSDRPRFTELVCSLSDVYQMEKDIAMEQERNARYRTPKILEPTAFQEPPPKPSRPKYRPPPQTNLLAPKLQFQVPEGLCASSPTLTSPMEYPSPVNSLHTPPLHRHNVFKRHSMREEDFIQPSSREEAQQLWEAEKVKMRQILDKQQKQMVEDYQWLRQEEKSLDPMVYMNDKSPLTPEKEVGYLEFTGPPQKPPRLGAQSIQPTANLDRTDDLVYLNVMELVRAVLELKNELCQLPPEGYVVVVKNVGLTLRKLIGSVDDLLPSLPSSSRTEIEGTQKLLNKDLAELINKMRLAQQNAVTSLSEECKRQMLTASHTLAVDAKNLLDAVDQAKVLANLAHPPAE
Chain of JAK2 (O60674 826-1132 limits assumed): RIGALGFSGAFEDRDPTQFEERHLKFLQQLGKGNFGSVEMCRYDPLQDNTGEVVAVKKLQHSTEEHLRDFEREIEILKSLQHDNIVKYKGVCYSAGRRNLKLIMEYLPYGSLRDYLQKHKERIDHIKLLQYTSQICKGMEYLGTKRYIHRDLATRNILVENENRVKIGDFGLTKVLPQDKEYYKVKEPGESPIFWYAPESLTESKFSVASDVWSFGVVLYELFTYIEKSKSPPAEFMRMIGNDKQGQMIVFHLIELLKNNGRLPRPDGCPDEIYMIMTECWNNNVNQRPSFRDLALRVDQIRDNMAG
T6 sequence (Q5S007 970-2527 limits assumed): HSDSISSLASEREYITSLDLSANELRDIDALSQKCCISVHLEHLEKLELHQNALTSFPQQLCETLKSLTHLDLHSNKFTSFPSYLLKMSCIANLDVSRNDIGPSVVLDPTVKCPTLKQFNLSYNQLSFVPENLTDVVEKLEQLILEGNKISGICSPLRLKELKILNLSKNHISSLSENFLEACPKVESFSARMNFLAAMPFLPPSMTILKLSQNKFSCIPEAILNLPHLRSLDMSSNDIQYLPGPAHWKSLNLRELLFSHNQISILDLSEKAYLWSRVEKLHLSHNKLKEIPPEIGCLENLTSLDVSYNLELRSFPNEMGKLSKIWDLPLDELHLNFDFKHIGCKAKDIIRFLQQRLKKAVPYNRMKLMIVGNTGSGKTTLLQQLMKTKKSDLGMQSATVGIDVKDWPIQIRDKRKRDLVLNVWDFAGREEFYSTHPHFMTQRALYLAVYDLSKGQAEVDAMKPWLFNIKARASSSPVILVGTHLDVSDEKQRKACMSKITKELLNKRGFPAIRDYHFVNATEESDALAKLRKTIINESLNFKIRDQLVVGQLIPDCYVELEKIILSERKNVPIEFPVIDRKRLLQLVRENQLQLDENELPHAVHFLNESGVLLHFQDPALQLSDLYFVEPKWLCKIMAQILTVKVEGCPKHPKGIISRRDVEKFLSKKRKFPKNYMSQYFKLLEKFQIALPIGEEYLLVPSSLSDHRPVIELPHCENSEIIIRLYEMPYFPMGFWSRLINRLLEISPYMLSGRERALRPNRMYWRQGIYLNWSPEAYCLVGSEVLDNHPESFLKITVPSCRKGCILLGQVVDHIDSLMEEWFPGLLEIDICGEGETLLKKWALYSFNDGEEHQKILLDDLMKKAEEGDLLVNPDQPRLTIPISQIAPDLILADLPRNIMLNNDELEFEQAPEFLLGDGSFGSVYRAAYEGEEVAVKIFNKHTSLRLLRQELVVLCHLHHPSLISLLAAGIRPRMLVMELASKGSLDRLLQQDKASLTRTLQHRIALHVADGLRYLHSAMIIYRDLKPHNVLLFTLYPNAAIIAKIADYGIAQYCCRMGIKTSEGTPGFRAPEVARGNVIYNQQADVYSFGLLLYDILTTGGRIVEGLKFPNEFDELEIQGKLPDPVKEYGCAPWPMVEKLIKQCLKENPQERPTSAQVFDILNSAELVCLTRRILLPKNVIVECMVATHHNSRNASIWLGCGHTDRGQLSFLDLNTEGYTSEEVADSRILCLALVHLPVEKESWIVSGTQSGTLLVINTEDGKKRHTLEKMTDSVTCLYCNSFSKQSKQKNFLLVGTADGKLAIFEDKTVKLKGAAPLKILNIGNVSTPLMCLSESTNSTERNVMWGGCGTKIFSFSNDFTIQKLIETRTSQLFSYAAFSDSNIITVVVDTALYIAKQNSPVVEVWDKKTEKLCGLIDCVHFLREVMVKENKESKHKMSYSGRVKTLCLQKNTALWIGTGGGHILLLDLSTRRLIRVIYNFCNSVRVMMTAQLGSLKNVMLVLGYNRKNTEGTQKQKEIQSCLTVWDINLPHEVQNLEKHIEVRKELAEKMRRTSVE
T3 sequence (Q05397 376-1052 limits assumed): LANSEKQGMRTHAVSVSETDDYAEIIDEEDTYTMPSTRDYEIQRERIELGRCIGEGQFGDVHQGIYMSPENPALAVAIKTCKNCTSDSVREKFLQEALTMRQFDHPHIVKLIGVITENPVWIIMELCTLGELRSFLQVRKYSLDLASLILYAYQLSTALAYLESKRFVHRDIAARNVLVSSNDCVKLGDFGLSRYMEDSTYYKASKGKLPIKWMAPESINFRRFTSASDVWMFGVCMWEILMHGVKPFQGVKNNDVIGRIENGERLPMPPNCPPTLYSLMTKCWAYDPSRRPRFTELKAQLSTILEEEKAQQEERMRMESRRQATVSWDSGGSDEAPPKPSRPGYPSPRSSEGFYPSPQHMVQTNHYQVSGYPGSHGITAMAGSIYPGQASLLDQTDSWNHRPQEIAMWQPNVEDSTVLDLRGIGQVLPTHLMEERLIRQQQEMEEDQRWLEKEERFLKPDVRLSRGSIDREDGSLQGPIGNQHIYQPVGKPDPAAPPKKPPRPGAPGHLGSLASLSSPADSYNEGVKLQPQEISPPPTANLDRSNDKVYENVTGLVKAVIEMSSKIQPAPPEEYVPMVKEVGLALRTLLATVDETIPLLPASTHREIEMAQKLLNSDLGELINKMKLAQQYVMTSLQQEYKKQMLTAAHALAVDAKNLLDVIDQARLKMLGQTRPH
Chain of K1T (P10721 26-976): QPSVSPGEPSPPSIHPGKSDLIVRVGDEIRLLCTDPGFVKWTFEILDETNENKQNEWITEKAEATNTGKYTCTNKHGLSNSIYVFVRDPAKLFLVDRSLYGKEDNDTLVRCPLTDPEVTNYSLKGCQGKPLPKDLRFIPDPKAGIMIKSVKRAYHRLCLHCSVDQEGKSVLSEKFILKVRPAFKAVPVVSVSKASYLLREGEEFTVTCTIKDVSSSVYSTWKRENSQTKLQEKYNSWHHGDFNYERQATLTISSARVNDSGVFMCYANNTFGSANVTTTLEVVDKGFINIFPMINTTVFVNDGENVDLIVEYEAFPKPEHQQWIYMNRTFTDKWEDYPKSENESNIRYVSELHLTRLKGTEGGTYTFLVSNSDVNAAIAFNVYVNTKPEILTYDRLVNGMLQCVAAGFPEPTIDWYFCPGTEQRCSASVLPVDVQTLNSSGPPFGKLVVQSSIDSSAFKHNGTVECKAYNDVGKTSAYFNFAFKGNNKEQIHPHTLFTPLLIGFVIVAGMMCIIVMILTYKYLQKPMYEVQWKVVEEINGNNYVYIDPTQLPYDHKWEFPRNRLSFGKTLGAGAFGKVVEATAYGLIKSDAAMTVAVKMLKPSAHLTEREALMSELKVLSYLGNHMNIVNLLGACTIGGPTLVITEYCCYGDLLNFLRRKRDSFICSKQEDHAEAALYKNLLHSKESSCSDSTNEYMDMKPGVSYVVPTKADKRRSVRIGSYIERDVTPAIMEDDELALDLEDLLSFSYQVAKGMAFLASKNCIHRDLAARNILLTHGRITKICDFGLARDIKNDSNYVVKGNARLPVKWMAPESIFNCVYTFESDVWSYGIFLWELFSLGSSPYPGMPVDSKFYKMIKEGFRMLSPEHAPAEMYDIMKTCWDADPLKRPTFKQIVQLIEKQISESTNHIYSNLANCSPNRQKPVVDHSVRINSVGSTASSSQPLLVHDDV
T4 sequence (P11309 whole entry): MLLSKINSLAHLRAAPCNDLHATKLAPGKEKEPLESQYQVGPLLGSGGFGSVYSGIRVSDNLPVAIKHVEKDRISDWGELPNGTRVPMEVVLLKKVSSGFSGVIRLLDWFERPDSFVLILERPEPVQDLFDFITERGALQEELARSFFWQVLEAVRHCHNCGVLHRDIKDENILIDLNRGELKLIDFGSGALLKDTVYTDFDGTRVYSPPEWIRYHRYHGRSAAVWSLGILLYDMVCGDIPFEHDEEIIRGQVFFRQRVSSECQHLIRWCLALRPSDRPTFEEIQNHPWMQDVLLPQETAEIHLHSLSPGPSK

For `COc1cc(Nc2ncc(C)c(-n3cc(C)c(CO)c3)n2)cc(OC)c1OC` [Compound 21, (4-methyl-1-(5-methyl-2-(3,4,5-trimethoxyphenylamino)pyrimidin-4-yl)-1H-pyrrol-3-yl)methanol], the inhibition at 1 µM at SYK amounted to 96.4%; on PYK2, 78.2%; against FAK, 70.7%; against PIM1 it was 71.2%; on LRRK2, 93%. The pIC50 is 7.30 against RET, 6.86 against K1T and 8.11 against JAK2.

As for `Cc1cc(C)cc(Nc2ncc(F)c(-n3cc(C)c(CN4CC[C@@H](O)C4)c3)n2)c1` [Compound 82, (R)-1-((1-(2-(3,5-dimethylphenyl-amino)-5-fluoropyrimidin-4-yl)-4-methyl-1H-pyrrol-3-yl)methyl) pyrrolidin-3-ol], in assay [1] (Homo sapiens, THP-1 cells, IgG stimulation, 0.3 μM, 18-hour incubation), 0.3 µM produced 49.2% inhibition. The same compound yielded an inhibition at 1 µM in assay [1] (Homo sapiens, THP-1 cells, IgG stimulation, 1 μM, 18-hour incubation) of 91.4%. Moreover, in assay [1] (IgG stimulated release, 0.3 μM), the “percentage inhibition of TNF-α release compared with R406” value is reported as “greater that those exhibited by R406”.

The term inhibition denotes the change of the read-out against control, counted positive when it falls. As usually defined, the pIC50 is −log10 of the IC50, conventionally taken in molar units.
